# In EP0324328B1, “Use of the N-n-butyl derivative of desoxynojirimycin in the manufacture of a medicament inhibiting HIV-Virus” (priority 1987, dated 1989):
# What was measured:
# Assay type in all cases: cell-based
# HIV [1] = test: Inhibition of HIV-associated cytopathic effect (CPE) in T-45 cells; conditions: HIV infected T-45 cells, various concentrations (Fig. 3); result in words
# Method: FIG. 3 is a graphical representation in which the inhibition of HIV associated CPE (―% CPE) reduction) and test compound-associated cytotoxicity (---% cell death) is plotted against the media concentration in mg/ml of several test compounds (drugs). The cell viability data was determined for non-HIV infected cells. The test compounds were the N-methyl-, N-ethyl-, and N-butyl derivatives of deoxynojirimycin (DNJ), castanospermine (Cast), N-(5-carboxymethyl-1-pentyl)-1,5-imino-L-fucitol (LFT) and 1,4-dideoxy-1,4-imino-L-arabinitol (LAB).
# After a suitable period of incubation, the cultures are scored for the presence of so-called syncytial cells (giant cells). Typical examples of such a test for the evaluation of inhibitors of HIV have been disclosed by Fung et al., Bio/Technology 5, 940-946 (1987); Tyms et al., Lancet, October 31, 1987, pp. 1025-1026; Gruters et al., Nature 330, 74-77 (1987); and Walker et al., Proc. Natl. Acad. Sci. USA 84, 8120-8124 (1987).
# (§1) The efficacy of the test compounds used in this example was assessed as follows: 0.2 ml of culture medium containing 10^4 T-45 cells were transferred into each well of a 96-well flat-bottomed tissue-culture plastic plate and the cells were allowed to settle at 37°C (see Figure 1). After 4 hours the media were aspirated and replaced with media which contained the test compound. Following overnight incubation the media was aspirated and 10^4 TCID of virus (HIV-1 or HIV-2) was added to each well. Incubation was continued at 37°C in 5% CO2 for 1 hour. Thereafter, growth media containing the various compounds were added and incubation at 37°C was continued. On the fourth day the cell suspensions from each well were split and seeded into two new wells and 0.2 ml of fresh media with compounds was added. This was repeated on the seventh day. Cells were examined by microscopy during days 1 to 10 for the presence of syncytia, growth rate and the appearance of the cytopathic effect (CPE) (giant cells, pycnotic nuclei, loss of refractility). CPE (100%) was defined as no round, refractile, uniform cells remaining; only giant, ballooned pyknotic cells were present. The viability of HIV infected cultures was determined by a rough count/estimate of cells which underwent CPE in relation to round refractile uniform (normal) cells in a given culture. Cells in wells which were incubated with compounds which appeared to inhibit or reduce HIV replication and in which there was marked cell proliferation were either transferred to larger wells (of a 24-well plate) or divided in order to maintain an approximate constant cell density to promote continuous cell division.
# [2] = system: B16-F10 murine melanoma cells; test: Incorporation of radiolabeled galactose, mannose, glucose and thymidine into cells; conditions: result in words; for galactose incorporation into the cells: radiolabeled galactose; for glucose utilization/inhibition: radiolabeled glucose; for mannose utilization: radiolabeled mannose
# HIV [3] = test: TCID titre of culture supernatants of T-45 cells infected with HIV, Fig. 4; conditions: for reduction of TCID titre of culture supernatants: T-45 cells infected with HIV, after 10 days in culture, result in words; for reduction of the virus titer / yield of infectious HIV: at non-cytotoxic concentrations
# Method: FIG. 4 is a graphical representation in which the viral titer (determined as TCID) is plotted against the concentration in mg/ml of various of the test compounds (drugs) of FIG. 3 in panels (a) and (b).
# (§2) Cell free suspensions of the HIV were prepared from infected cultures. The concentration of infectious particles was estimated on end-point titration assay using serial ten-fold dilutions. The approximate number of infectious particles in each preparation was determined by the highest dilution which contains infectious HIV as determined by synctial formation, cytopathicity [Leonard et al., Proc. Natl. Acad. Sci. USA 85, 3570-3574 (1988); Barre-Sinoussi et al., Science 220, 868-870 (1983)] and HIV antigen [Karpas et al., Lancet 1, 695-697 (1985)] synthesis after 10 days of culture with 10^4 T-cells. This represents the concentration of infectious particles, herein defined as the tissue culture infectious dose (TCID).
# as §1
# Quantitative data on the effect of the various compounds on the non-infected cells (cytotoxicity) was obtained by comparison of their growth rate to control cells not exposed to drugs (Table 1). Fig. 4 and Table 2 show the relation between the TCID titre of culture supernatants of T-45 cells infected with HIV after 10 days in culture and the concentration of drug. […] The inability of any of these drugs alone to totally reduce the TCID may be due to heterogeneity of virus production or spread. […] In addition, the MOLT-4 cell line was also used.
# HIV-2 = test: Virus titer (TCID) of HIV-2 infected T-cell cultures grown with test compound; conditions: control 10^6; for HIV-2 (TCID): Table 2, 0.10 mg/ml, 10^4 T-45 or MOLT-4 cells (identical results), 10^4 TCID inoculum, after day 10; for VIRUS TITER HIV-2: Table 3, Example 2, 0.1 mg/ml, T-45 and MOLT-4 cells, 10^4 TCID on 10^4 cells
# Method: as §2
# (§3) The assay was run in 96 well plastic microtiter plates in which 0.2 ml of culture medium containing 10^4 T-cells are seeded into each well. RPMI-1640 supplemented with 10% fetal calf serum was used as the culture medium. In each assay, 6 wells are used. Three (1-3) are infected with 10^4 TCID/well of HIV-1 or HIV-2 and to the other three (4-6) culture medium alone is added. Medium is changed at the same intervals for each test compound. The detailed assay procedure is illustrated in Figures 1 and 2.
# as §1
# (§4) That is, HIV-1 was first passaged in T-45 cells; likewise, HIV-1 was first passaged in MOLT-4 cells. The same passaging was done with HIV-2. The test compounds were used at a concentration of 0.1 mg/ml. 10^4 TCID of HIV-1 and separately of HIV-2 were used to infect 10^4 cells. Upon completion of the test, the virus titers were as follows: TABLE 3
# HIV-1 = test: Virus titer (TCID) of HIV-1 infected T-cell cultures grown with test compound; conditions: control 10^6; for HIV-1 (TCID): Table 2, 0.10 mg/ml, 10^4 T-45 or MOLT-4 cells (identical results), 10^4 TCID inoculum, after day 10; for VIRUS TITER HIV-1: Table 3, Example 2, 0.1 mg/ml, T-45 and MOLT-4 cells, 10^4 TCID on 10^4 cells
# Method: as §2, §3, §1, §4
# [4] = replicate tests (Tables 2 and 3), two virus strains, two cell lines
SMILES,effect on CPE formation (HIV [1]),galactose incorporation into the cells [2],glucose utilization/inhibition [2],mannose utilization [2],^3H-Thymidine uptake into the cells [2],reduction of TCID titre of culture supernatants (HIV [3]),reduction of the virus titer / yield of infectious HIV (HIV [3]),effectiveness as an inhibitor of HIV compared with N-ethyl deoxynojirimycin (HIV [3]; [4]),effectiveness as an inhibitor of HIV compared with N-methyl-deoxynojirimycin (HIV [3]; [4]),HIV-2 (TCID) (HIV-2),VIRUS TITER HIV-2 (HIV-2),HIV-1 (TCID) (HIV-1),VIRUS TITER HIV-1 (HIV-1)
"CCCCN1C[C@H](O)[C@@H](O)[C@H](O)[C@H]1CO [BuDNJ, N-n-butyl-deoxynojirimycin]",completely prevented CPE in the HIV infected cells at all concentrations tested,substantially inhibited galactose incorporation into the cells at 1.0 mM or less,little or no effect,inhibited mannose utilization,not affected by N-butyl-DNJ up to 2.0 mM,negligible virus TCID titres,over five logs,three log orders more effective,two log orders more effective,<10 TCID,10,<10 TCID,10
"CN1C[C@H](O)[C@@H](O)[C@H](O)[C@H]1CO [MeDNJ, N-methyl-deoxynojirimycin]",bell shaped dose-dependence,only slightly inhibitory,inverted dose-response curve,"either stimulated incorporation or, conservatively, had no effect",inhibited incorporation at 1.0 mM,reduced the TCID only partially,two to four log-order of reduction,–,–,10^2 TCID,10^2,10^2 TCID,10^2
